Assay results as given in patent US8637523B2, “Compounds for the reduction of beta-amyloid production” (Bristol-Myers Squibb Company, priority 2010, dated 2014).

Test system: Aβ42
Test: Cellular assay for inhibition of Aβ1-42 production (H4 APP751 SWE clone 8.20)
Assay type: cell-based
Details: 19 h, H4 APP751 SWE clone 8.20 cells, 19 h incubation; read-out: Activity Rating (Aβ42 cellular IC50), class symbol
Procedure, shortened: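 Cells incubate with compound for 19 h (37 °C, 5% CO2), the plate is briefly spun, and antibody mix is added straight to the wells: Wallac-conjugated 565 against the Aβ42 C-terminal neoepitope and APC-conjugated 26D6 against the Aβ N-terminus. After overnight sealing at 4 °C, signal is counted and IC50 fitted.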

Row | Compound | IC50 [nM]
1 | N#Cc1ccc2cc1OCCCNc1nc(nc3c1CCC3c1ccc(F)cc1F)N2 (stereo not drawn) [Example 33A, 7-cyano-17-(2,4-difluorophenyl)-11,12,13,15,16,17-hexahydro-10H-14,2-(azeno)-8,4-(metheno)cyclopenta[g][1,5,9,14]oxatriazacyclohexadecine] | 10 to 100
2 | Clc1cn(-c2ccc3cc2OCCCCNc2nc(nc4c2CCC4c2ccccc2)N3)cn1 (stereo not drawn) [Example 12A, 7-(4-chloro-1H-imidazol-1-yl)-18-phenyl-10,11,12,13,14,16,17,18-octahydro-15,2-(azeno)-8,4-(metheno)cyclopenta[h][1,6,10,12]oxatriazacycloheptadecine] | < 10
3 | Cc1ncnn1-c1ccc2cc1OCCCCNc1nc(nc3c1CCC3c1ccccc1)N2 (stereo not drawn) [Example 47B, 7-(5-methyl-1H-1,2,4-triazol-1-yl)-18-phenyl-10,11,12,13,14,16,17,18-octahydro-15,2-(azeno)-8,4-(metheno)cyclopenta[h][1,6,10,12]oxatriazacycloheptadecine] | 10 to 100
4 | CN1CCCOc2cc(ccc2C#N)Nc2nc3c(c1n2)CCC3c1ccccc1 (stereo not drawn) [Example 31A, 7-cyano-β-methyl-17-phenyl-11,12,13,15,16,17-hexahydro-10H-14,2-(azeno)-8,4-(metheno)cyclopenta[g][1,5,9,11]oxatriazacyclohexadecine] | 10 to 100
5 | Cc1ncn(-c2ccc3cc2OCCCCNc2nc(nc4c2CCC4c2ccccc2)N3)n1 (stereo not drawn) [Example 49B, 7-(3-methyl-1H-1,2,4-triazol-1-yl)-18-phenyl-10,11,12,13,14,16,17,18-octahydro-15,2-(azeno)-8,4-(metheno)cyclopenta[h][1,6,10,12]oxatriazacycloheptadecine] | 10 to 100

Further lines, results first:

Row | IC50 [nM] | Compound
6 | 10 to 100 | Cc1ncn(-c2ccc3cc2OCCCCN(C)c2nc(nc4c2CCC4c2ccc(F)cc2F)N3)n1 (stereo not drawn) [Example 61B, 18-(2,4-difluorophenyl)-14-methyl-7-(3-methyl-1H-1,2,4-triazol-1-yl)-10,11,12,13,14,16,17,18-octahydro-15,2-(azeno)-8,4-(metheno)cyclopenta[h][1,6,10,12]oxatriazacycloheptadecine]
7 | < 10 | Cc1ncn(-c2ccc3cc2OCC(O)CCNc2nc(nc4c2CCC4c2ccc(F)cc2)N3)n1 (single isomer, unassigned) [Example 72B, 18-(4-fluorophenyl)-7-(3-methyl-1H-1,2,4-triazol-1-yl)-10,11,12,13,14,16,17,18-octahydro-15,2-(azeno)-8,4-(metheno)cyclopenta[h][1,6,10,12]oxatriazacycloheptadecin-11(3H)-ol]

Same assay, conditions: 19 h, H4 APP751 SWE clone 8.20 cells, 19 h incubation; unit inferred; read-out: Activity Rating (Aβ42 cellular IC50), numeric value

Row | IC50 [nM] | Compound
8 | 47 | CN1C/C=C\COc2cc(ccc2-n2cnc(Cl)c2)Nc2nc3c(c1n2)CCC3c1ccc(F)cc1F (stereo not drawn) [Example 18B, (11Z)-7-(4-chloro-1H-imidazol-1-yl)-18-(2,4-difluorophenyl)-14-methyl-10,13,14,16,17,18-hexahydro-15,2-(azeno)-8,4-(metheno)cyclopenta[h][1,6,10,12]oxatriazacycloheptadecine]
9 | 31 | CN1CCCOc2cc(ccc2C#N)Nc2nc3c(c1n2)CCC3c1ccccc1 (stereo not drawn) [Example 31B, 7-cyano-β-methyl-17-phenyl-11,12,13,15,16,17-hexahydro-10H-14,2-(azeno)-8,4-(metheno)cyclopenta[g][1,5,9,11]oxatriazacyclohexadecine]
10 | 5.5 | Cc1ncn(-c2ccc3cc2OC/C=C\CN(C)c2nc(nc4c2CCC4c2ccc(F)cc2F)N3)n1 (stereo not drawn) [Example 57A, (11Z)-18-(2,4-difluorophenyl)-14-methyl-7-(3-methyl-1H-1,2,4-triazol-1-yl)-10,13,14,16,17,18-hexahydro-15,2-(azeno)-8,4-(metheno)cyclopenta[h][1,6,10,12]oxatriazacycloheptadecine]

Same assay, conditions: H4 APP751 SWE clone 8.20 cells, 19 h incubation; read-out: Activity Rating (Aβ42 cellular IC50), class symbol

Row | Compound | IC50 [nM]
11 | CN1CCCCOc2cc(ccc2-n2cnc(Cl)c2)Nc2nc3c(c1n2)CCC3c1ccc(F)cc1F (stereo not drawn) [Example 19B, 7-(4-chloro-1H-imidazol-1-yl)-18-(2,4-difluorophenyl)-14-methyl-10,11,12,13,14,16,17,18-octahydro-15,2-(azeno)-8,4-(metheno)cyclopenta[h][1,6,10,12]oxatriazacycloheptadecine] | 10 to 100
12 | CN1CC=CCOc2cc(ccc2-n2cnc(Cl)c2)Nc2nc3c(c1n2)CCC3c1ccccc1 (stereo not drawn) [Example 3A, (11Z)-7-(4-chloro-1H-imidazol-1-yl)-14-methyl-18-phenyl-10,13,14,16,17,18-hexahydro-15,2-(azeno)-8,4-(metheno)cyclopenta[h][1,6,10,12]oxatriazacycloheptadecine] | < 10
13 | CN1CCCCOc2cc(ccc2C#N)Nc2nc3c(c1n2)CCC3c1ccc(F)cc1F (single isomer, unassigned) [Example 32A, 7-cyano-18-(2,4-difluorophenyl)-14-methyl-10,11,12,13,14,16,17,18-octahydro-15,2-(azeno)-8,4-(metheno)cyclopenta[h][1,6,10,12]oxatriazacycloheptadecine] | 10 to 100
14 | Clc1cn(-c2ccc3cc2OC/C=C\CCc2nc(nc4c2CCC4c2ccccc2)N3)cn1 (single isomer, unassigned) [Example 16A, (11Z)-7-(4-chloro-1H-imidazol-1-yl)-18-phenyl-10,13,14,16,17,18-hexahydro-15,2-(azeno)-8,4-(metheno)cyclopenta[h][1,10,12]oxadiazacycloheptadecine] | < 10
15 | CN1CC=CCOc2cc(ccc2C#N)Nc2nc3c(c1n2)CCC3c1ccccc1 (stereo not drawn) [Example 29A, (11Z)-7-cyano-14-methyl-18-phenyl-10,13,14,16,17,18-hexahydro-15,2-(azeno)-8,4-(metheno)cyclopenta[h][1,6,10,12]oxatriazacycloheptadecine] | < 10
16 | Cc1ncn(-c2ccc3cc2OCCCCN(C)c2nc(nc4c2CCC4c2ccccc2)N3)n1 (stereo not drawn) [Example 50A, 14-methyl-7-(3-methyl-1H-1,2,4-triazol-1-yl)-18-phenyl-10,11,12,13,14,16,17,18-octahydro-15,2-(azeno)-8,4-(metheno)cyclopenta[h][1,6,10,12]oxatriazacycloheptadecine] | < 10

More lines, now with the values ahead:

Row | IC50 [nM] | Compound
17 | 10 to 100 | (11E)-7-cyano-18-(2,4-difluorophenyl)-10,13,14,16,17,18-hexahydro-15,2-(azeno)-8,4-(metheno)cyclopenta[h][1,6,10,12]oxatriazacycloheptadecine [Example 25A]
18 | < 10 | (11Z)-18-(2,4-difluorophenyl)-7-(5-methyl-1H-1,2,4-triazol-1-yl)-10,13,14,16,17,18-hexahydro-15,2-(azeno)-8,4-(metheno)cyclopenta[h][1,6,10,12]oxatriazacycloheptadecine [Example 53A]
19 | < 10 | Cc1ncn(-c2ccc3cc2OCC=CCCc2nc(nc4c2CCC4c2ccccc2)N3)n1 (stereo not drawn) [Example 59A, (11E)-7-(3-methyl-1H-1,2,4-triazol-1-yl)-18-phenyl-10,13,14,16,17,18-hexahydro-15,2-(azeno)-8,4-(metheno)cyclopenta[h][1,10,12]oxadiazacycloheptadecine]
20 | < 10 | Cc1ncn(-c2ccc3cc2OCC(O)CCNc2nc(nc4c2CCC4c2ccc(F)cc2)N3)n1 (single isomer, unassigned) [Example 72C, 18-(4-fluorophenyl)-7-(3-methyl-1H-1,2,4-triazol-1-yl)-10,11,12,13,14,16,17,18-octahydro-15,2-(azeno)-8,4-(metheno)cyclopenta[h][1,6,10,12]oxatriazacycloheptadecin-11(3H)-ol]

Same assay, conditions: H4 APP751 SWE clone 8.20 cells, 19 h incubation; unit inferred; read-out: Activity Rating (Aβ42 cellular IC50), numeric value

Row | Compound | IC50 [nM]
21 | Cc1ncnn1-c1ccc2cc1OCC=CCNc1nc(nc3c1CCC3c1ccccc1)N2 (stereo not drawn) [Example 43B, (11E)-7-(5-methyl-1H-1,2,4-triazol-1-yl)-18-phenyl-10,13,14,16,17,18-hexahydro-15,2-(azeno)-8,4-(metheno)cyclopenta[h][1,6,10,12]oxatriazacycloheptadecine] | 53
22 | CN1CCCCOc2cc(ccc2C#N)Nc2nc3c(c1n2)CCC3c1ccccc1 (single isomer, unassigned) [Example 34B, 7-cyano-14-methyl-18-phenyl-10,11,12,13,14,16,17,18-octahydro-15,2-(azeno)-8,4-(metheno)cyclopenta[h][1,6,10,12]oxatriazacycloheptadecine] | 160
23 | Clc1cn(-c2ccc3cc2OCC=CCCc2nc(nc4c2CCC4c2ccccc2)N3)cn1 (stereo not drawn) [Example 17A, (11E)-7-(4-chloro-1H-imidazol-1-yl)-18-phenyl-10,13,14,16,17,18-hexahydro-15,2-(azeno)-8,4-(metheno)cyclopenta[h][1,10,12]oxadiazacycloheptadecine] | 5.6

Results, then the compound that gave them:

Row | IC50 [nM] | Compound
24 | 24 | (11Z)-7-(3-methyl-1H-1,2,4-triazol-1-yl)-18-phenyl-10,13,14,16,17,18-hexahydro-15,2-(azeno)-8,4-(metheno)cyclopenta[h][1,10,12]oxadiazacycloheptadecine [Example 58B]
25 | 120 | CC1(c2ccc(F)cc2)CCc2c3nc(nc21)Nc1ccc(C#N)c(c1)OC/C=C\CN3 (stereo not drawn) [Example 69, (11Z)-7-cyano-18-(4-fluorophenyl)-18-methyl-10,13,14,16,17,18-hexahydro-15,2-(azeno)-8,4-(metheno)cyclopenta[h][1,6,10,12]oxatriazacycloheptadecine]
26 | 11 | Cc1ncn(-c2ccc3cc2OC/C=C/CNc2nc(nc4c2CCC4c2ccc(F)cc2F)N3)n1 (stereo not drawn) [Example 52A, (11E)-18-(2,4-difluorophenyl)-7-(3-methyl-1H-1,2,4-triazol-1-yl)-10,13,14,16,17,18-hexahydro-15,2-(azeno)-8,4-(metheno)cyclopenta[h][1,6,10,12]oxatriazacycloheptadecine]
27 | 15 | (11E)-7-(4-chloro-1H-imidazol-1-yl)-18-phenyl-10,13,14,16,17,18-hexahydro-15,2-(azeno)-8,4-(metheno)cyclopenta[h][1,6,10,12]oxatriazacycloheptadecine [Example 2B]
